System: T1, CLas GMPS
T1 construct: gene guaA
Conditions: read-out: (NH4)2SO4, Km mM; saturating XMP and ATP, 20 mM MgCl2, pH 8.5; salt printed as (NH4)2SO4 in table, NH4Cl in methods; text prints 10.9 ± 1.9 mM

## N [NH4+]
  Km: 10.9 ± 1.3 mM
